{
  "source": "patent US5574015A",
  "about": "“Isosteric antiherpes peptide derivatives” (priority 1994, dated 1996)",
  "tested_on": "HSV-2",
  "experiment": "Inhibition of Herpes Simplex Virus (HSV-2) replication in cell culture",
  "format": "cell-based, HSV-2 strain HG-52",
  "procedure": "Inhibition of Herpes Simplex Virus (HSV-2). Replication in Cell Culture\nBHK-21/C13 cells (ATCC CCL 10) are incubated for two days in 150 cm^2 T-flasks (1.5×10^6 cells/flask) with alpha-MEM medium (Gibco Canada Inc., Burlington, Ontario, Canada) supplemented with 8% (v/v) fetal bovine serum (FBS, Gibco Canada Inc.). The cells are trypsinized and then transferred to fresh media in a 24 well plate to give 2.5×10^5 cells in 750 μL of media per well. The cells are incubated at 37° for a period of 6 h to allow them to adhere to the plate. Thereafter, the cells are washed once with 500 μL of alpha-MEM supplemented with 0.5% (v/v) FBS and then incubated with 750 μL of the see media (low serum) for 3 days. After this period of serum starvation, the low serum medium is removed and the cells are incubated in 500 μL of BBMT for 2 to 3 hours. {BBMT medium is described by P. Brazeau et al., Proc. Natl. Acad. Sci. USA, 79, 7909 (1982).} Thereafter, the cells are infected with HSV-2 (multiplicity of infection=0.02 PFU/cell) in 100 μL of BBMT medium. (Note: The HSV-2 used was strain HG-52, see Y. Langelier and G. Buttin, J. Gen. Virol., 57, 21 (1981); the virus was stored at -80°) Following 1 h of virus adsorption at 37°, the media is removed and the cells are washed with BBMT (3×250 μL). The cells in each well are incubated with or without (control) appropriate concentrations of the test agent dissolved in 200 μL of BBMT medium. After 29 h of incubation at 37°, the infected cells are harvested by first freezing the plate at -80°, followed by thawing. The cells in each well are scraped off the surface of the well with the help of the melting ice fragments. After complete thawing, the cell suspensions are collected and each well is rinsed with 150 μL of BBMT medium. The viral sample (suspension plus washing) is sonicated gently for 4 min at 4°. Cell debris are removed by centrifugation (1000 times gravity for 10 minutes at 4°). The supernatant is collected and stored at -80° until determination of viral titer.\nViral titration was performed by a modification of the colorimetric assay method of M. Langlois et al., Journal of Biological Standardization, 14, 201 (1986).\nMore specifically, in a similar manner as described above, BHK-21/C13 cells are trypsinized and transferred to fresh media in a 96 well microtiter plate to give 20,000 cells in 100 μL of media per well. The cells in the prepared plate are incubated at 37° for 2 h. During that time, the viral sample is thawed and sonicated gently for 15 seconds, and log dilutions of the sample are prepared (1/5 sequential: 50 μL of the sample plus 200 μL of BBMT medium, sequential dilutions being done with a multichannel pipette.\nOn completion of the above 2 hour incubation of the BHK-21/C13 cells, the media is replaced with alpha-MEM medium supplemented with 3% (v/v) FBS. The cells are now ready to be infected with the various sample dilutions of virus. Aliquots (50 μL) of the various dilutions are transferred into the appropriate wells of the plate. The resulting infected cells are incubated for 2 days at 37°. Then 50 μL of a 0.15% (v/v) solution of neutral red dye in Hank's Balanced Salt Solution (pH 7.3, Gibco Canada Inc.) is added to each well. The prepared plate is incubated for 45 min at 37°. Medium from each well is then aspirated and the cells are washed once with 200 μL of Hank's Balanced Salt Solution. […]",
  "key": {"[1]": {"conditions": "Table II, BHK-21/C13 cells, 29 h incubation, 50% inhibition of virus replication"}, "[2]": {"conditions": "Table V, cell culture assay of example 11"}},
  "data": [
    {"compound": "Nc1nc2c(ncn2COCCO)c(=O)[nH]1", "note": "[acyclovir, reference compound]", "values": [
      {"measurement": "EC50", "setting": "Human alphaherpesvirus 2, Table III, acyclovir + 2 μM of peptide (title peptide of example 6)", "value": 1.4, "unit": "µM"},
      {"measurement": "EC50", "setting": "Human alphaherpesvirus 2, Table III, acyclovir + 4 μM of peptide (title peptide of example 6)", "value": 0.9, "unit": "µM"},
      {"measurement": "EC50", "setting": "Human alphaherpesvirus 2, Table III, acyclovir + 6 μM of peptide (title peptide of example 6)", "value": 0.9, "unit": "µM"},
      {"measurement": "EC50", "setting": "Human alphaherpesvirus 2, Table III, acyclovir + 8 μM of peptide (title peptide of example 6)", "value": 0.8, "unit": "µM"},
      {"measurement": "EC50", "setting": "Human alphaherpesvirus 2, Table III, acyclovir + 10 μM of peptide (title peptide of example 6)", "value": 0.42, "unit": "µM"},
      {"measurement": "synergism by the isobole method", "setting": "combination of acyclovir and title peptide of example 6, FIG. 1", "value": "positive result"},
      {"measurement": "action of the combination of acyclovir and the peptide versus acyclovir alone", "setting": "combinations with title peptide of example 6, EC50's significantly lower than acyclovir alone", "value": "synergistic action"}
    ]},
    {"compound": "Et2 CHNHC(O)--Tbg--CH2 --(R)-CH(CH2 C(O)--CMe3)C(O)--Asp(cyPn)--NHCH2 CMe3", "values": [
      {"measurement": "EC50", "setting": "[1]", "value": 56, "unit": "µM"}
    ]},
    {"compound": "Et2 CHNHC(O)--Tbg--CH2 --(R)-CH{CH2 C(O)--(cyclopentyl)}C(O)--Asp(cyPn)--NHCH2 CMe3", "values": [
      {"measurement": "EC50", "setting": "[1]", "value": 50, "unit": "µM"}
    ]},
    {"compound": "Et2 CHNHC(O)--Tbg--CH2 --(S)-CH{CH2 C(O)--(pyrrolidino)}C(O)--Asp(cyPn)--γMeLeucinol", "values": [
      {"measurement": "EC50", "setting": "[1]", "value": 200, "unit": "µM"}
    ]},
    {"compound": "Me(CH2 =CH--CH2)2 CNHC(O)-Tbg-CH2 --(R)--CH(CH2 C(O)CMe3)C(O)-Asp(cyPn)-NHCH2 CMe3 [Me(CH2 =CHCH2)2 --CNHC(O), NHCH2 CMe3]", "values": [
      {"measurement": "EC50", "setting": "Table IV, cell culture assay of example 11", "value": 30, "unit": "µM"}
    ]},
    {"compound": "PhCH2 CH2 C(O)--(N--Me)Val--Tbg--CH2 --(R)-CH(CH2 C(O)CMe3)C(O)--Asp(cyPn)--γMeLeu--NH2", "values": [
      {"measurement": "EC50", "setting": "[1]", "value": 60, "unit": "µM"}
    ]},
    {"compound": "PhCH2 CH2 C(O)--(N--Me)Val--Tbg--CH2 --(R)-CH(CH2 C(O)CMe3)C(O)--Asp(cyPn)--γMeLeu--OH", "values": [
      {"measurement": "EC50", "setting": "[1]", "value": 65, "unit": "µM"}
    ]},
    {"compound": "PhCH2 CH2 C(O)--(N-Me)Val-Tbq-CH2 --(R)--CH(CH2 C(O)CMe3)C(O)-Asp(cyPn)-γMeLeucinol [Title Compound of Example 6]", "values": [
      {"measurement": "EC50", "setting": "[1]", "value": 15, "unit": "µM"},
      {"measurement": "EC50", "setting": "Table III, agent alone, BHK-21/C13 cells", "value": 19, "unit": "µM"}
    ]},
    {"compound": "Pr2 CHNHC(O)--NH--(S)-CH(CMe2 Et)--C(O)--CH2 --(R)-CH(CH2 C(O)CMe3)C(O)--Asp--(cyPn)--NH--(R)-CH(Me)CMe3", "values": [
      {"measurement": "EC50", "setting": "[2]", "value": 13, "unit": "µM"}
    ]},
    {"compound": "Pr2 CHNHC(O)--Tbg--CH2 --(R)-CH(CH2 --C(O)CHMe2)C(O)--Asp(cyPn)--NHCH2 CMe3", "values": [
      {"measurement": "EC50", "setting": "[2]", "value": 39, "unit": "µM"}
    ]},
    {"compound": "Pr2 CHNHC(O)--Tbg--CH2 --(R)-CH(CH2 --C(O)CMe2 Et)C(O)--Asb(cyPn)--NHCH2 --CMe3", "values": [
      {"measurement": "EC50", "setting": "[2]", "value": 33, "unit": "µM"}
    ]},
    {"compound": "Pr2 CHNHC(O)--Tbg--CH2 --(R)-CH(CH2 --C(O)CMe3)C(O)--Asp{(R)-Pr}--NHCH2 CMe3", "values": [
      {"measurement": "EC50", "setting": "[2]", "value": 46, "unit": "µM"}
    ]},
    {"compound": "Pr2 CHNHC(O)--Tbg--CH2 --(R)-CH(CH2 --C(O)CMe3)C(O)--Asp{(R)-allyl}--NHCH2 CMe3", "values": [
      {"measurement": "EC50", "setting": "[2]", "value": 62, "unit": "µM"}
    ]},
    {"compound": "Pr2 CHNHC(O)--Tbg--CH2 --(R)-CH(CH2 C(O)--CMe3)C(O)--Asp(cyPn)--NHCH2 CMe3", "values": [
      {"measurement": "EC50", "setting": "[1]", "value": 24, "unit": "µM"}
    ]},
    {"compound": "Pr2 CHNHC(O)--Tbg--CH2 --(R)-CH(CH2 C(O)--CMe3)C(O)--Asp(cyPn)--γMeLeucinol", "values": [
      {"measurement": "EC50", "setting": "[1]", "value": 30, "unit": "µM"}
    ]},
    {"compound": "Pr2 CHNHC(O)--Tbg--CH2 --(R)-CH--(CH2 C(O)CH2 CMe3)C(CF)--Asp(cyPn)--Leu--OH", "values": [
      {"measurement": "EC50", "setting": "[2]", "value": 80, "unit": "µM"}
    ]},
    {"compound": "Pr2 CHNHC(O)--Tbg--CH2 --(R)-CH{CH2 --C(O)--(1-methylcyclopentyl)}C(O)--Asp(cyPn)--NHCH2 CMe3", "values": [
      {"measurement": "EC50", "setting": "[2]", "value": 35, "unit": "µM"}
    ]},
    {"compound": "Pr2 CHNHC(O)--Tbg--CH2 --(R)-CH{CH2 --C(O)--(cyclobutyl)}C(O)--Asp(cyPn)--NHCH2 CMe3", "values": [
      {"measurement": "EC50", "setting": "[2]", "value": 46, "unit": "µM"}
    ]},
    {"compound": "Pr2 CHNHC(O)--Tbg--CH2 --(R)-CH{CH2 --C(O)--(cyclohexyl)}C(O)--Asp(cyPn)--NHCH2 CMe3", "values": [
      {"measurement": "EC50", "setting": "[2]", "value": 61, "unit": "µM"}
    ]},
    {"compound": "Pr2 CHNHC(O)--Val--CH2 --(R)-CH(CH2 --C(O)CMe3)C(O)--Asp(cyPn)--NH--(R)-CH(Me)CMe3", "values": [
      {"measurement": "EC50", "setting": "[2]", "value": 37, "unit": "µM"}
    ]}
  ]
}
